Where two headings read alike, the source gives them in different places.
Columns and labels:
[1] = system: monoclonal antibody MC2101; experiment: ELISA recognition of Gal2 glycopeptides by monoclonal antibody MC2101; format: binding, mouse
Experimental: (§1) Peptides (50 μg/ml) were diluted in 0.05 M carbonate buffer (pH 9.6) and 100 μl/well was added to flat-bottomed Costar microplates (cat. No 3590) for incubation over-night at 4° C. Plates were washed once with PBS, pre-incubated with […] for 30 minutes at room temperature and washed twice with PBS/0.05% Tween buffer. Monoclonal antibodies were diluted in 0.5% gelatin/PBS/0.05% Tween, added to microplates and incubated for 2 hours at room temperaure, and flick-washed with PBS/Tween. Alkaline phosphatase conjugated rabbit anti-mouse immunoglobulins (Dakopauts code No. S 414) was diluted 1/1000 in PBS/Tween and added as 100 μl/well. After 2 hours incubation at room temperature and 4 washes with PBS/Tween, 100 μl of alkaline phosphatase substrate solution was added. Plates were read after 2 hour at room temperaure, using a Multiskan System (Lab systems), for optical density at 405 nm.
The ELISA assay was performed as described in connection with Table 4.

[2] = system: monoclonal antibody Pk002; experiment: ELISA recognition of Gal2 glycopeptides by monoclonal antibody Pk002; format: binding, mouse; settings: antibody Pk002 (specificity Globotriaosyl Gal--Gal--Glc, CD77); peptides coated at 50 μg/ml, pH 9.6
Experimental: as §1

RMA-S cells [3] = experiment: Membrane expression of the CHO part (Gal2) by antibody staining in FACS; format: cell-based; settings: data not shown
Experimental: (§2) Panel A: RMA-s cells were incubated for 24 hours at 26° C. to induce expression of empty D^b MHC-1 chains at the cell surface, and at 37° C., and stained for D^b expression. Panel B: Removal of D^b expression by pronase treatment of RMA-S cells, preincubated at 26° C. Pronase treatment for 2 h and 4 h. D^b removal is complete at 4 h. Panels C and E: 26° C. induced RMA-S cells were treated with the glycopeptides Gal2 -CSG11 (panel C) or Gal2 CAS10 (panel E), 300 μM for 2 h at 37° C., washed and stained for Gal2 expression. Panels D and F: Glycopeptide treated RMA-S cells as in panels C and E were pronase treated to remove Db and glycopeptide expression, washed and further incubated at 37° C. to allow re-expression of glycopeptides and stained for Gal2 expression.
When the glycopeptide bind to MHC-1, on the cell surface, the expression (and acessibility) of the corresponding CHO part, can be detected by antibody staining in FACS, as described above in relation to FIGS. 10C and E.

EL4 and RMA-S cells = format: cell-based, mice
RMA-S cells [4] = experiment: Membrane recycling of glycopeptide after pronase treatment; format: cell-based; settings: pronase treated RMA-S cells, 37° C.; data not shown
Experimental: as §2
The capacity of the conjugate to be recycled may be assessed by incubating the cells (with bound conjugate) at 37° C. whereupon the glycopeptide will internalise. The temperature may then be lowered and the cells treated with a proteolytic enzyme (e.g. Pronase) to strip off exposed peptide/carbohydrate conjugate. On reheating, recycled conjugate may be detected by probing for the Gal2 epitope using the anti-Gal2 antibody.
Described in FIGS. 10D and F.

H-2D^b = biological target: T1, H-2D^b (Mus musculus, UniProt P01899); experiment: MHC-1 upregulation on RMA-S cells (D^b); format: cell-based, murine; settings: RMA-S cells with peptide NP366-374 (50 μM), 6 h; FIG. 8
T1 sequence (P01899 25-362): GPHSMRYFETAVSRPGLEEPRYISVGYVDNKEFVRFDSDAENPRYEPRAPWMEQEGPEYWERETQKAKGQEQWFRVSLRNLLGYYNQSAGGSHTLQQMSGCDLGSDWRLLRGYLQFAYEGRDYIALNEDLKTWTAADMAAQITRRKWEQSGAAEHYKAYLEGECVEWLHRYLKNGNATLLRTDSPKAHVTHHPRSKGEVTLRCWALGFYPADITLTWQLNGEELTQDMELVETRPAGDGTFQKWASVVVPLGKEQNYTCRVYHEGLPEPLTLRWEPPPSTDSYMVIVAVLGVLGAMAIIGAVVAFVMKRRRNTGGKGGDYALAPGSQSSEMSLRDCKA
T1 sequence (P01887 21-119 partner): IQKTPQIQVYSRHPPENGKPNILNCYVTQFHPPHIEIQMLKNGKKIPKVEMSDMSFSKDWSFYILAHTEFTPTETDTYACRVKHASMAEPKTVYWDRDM

[5] = system: pep 9(PR8)-coated RMA target cells; experiment: Kinetics of CTL activity after one s.c. injection of peptide (51Cr release); format: in vivo, mice; settings: primed once with 100 μg
[6] = 100 μg s.c., restimulated with 5 μM in vitro
[7] = priming 1 μg, restimulation 0.05 μM, effector:target 20:1
[8] = priming 1 μg, restimulation 0.05 μM, effector:target 40:1
[9] = priming 1 μg, restimulation 5.00 μM, effector:target 20:1
[10] = priming 1 μg, restimulation 5.00 μM, effector:target 40:1
[11] = priming 10 μg, restimulation 0.05 μM, effector:target 20:1
[12] = priming 10 μg, restimulation 0.05 μM, effector:target 40:1
[13] = priming 10 μg, restimulation 5.00 μM, effector:target 20:1
[14] = priming 10 μg, restimulation 5.00 μM, effector:target 40:1
[15] = priming 100 μg, restimulation 0.05 μM, effector:target 20:1
[16] = priming 100 μg, restimulation 0.05 μM, effector:target 40:1
[17] = priming 100 μg, restimulation 5.00 μM, effector:target 20:1
[18] = priming 100 μg, restimulation 5.00 μM, effector:target 40:1

CC[C@H](C)[C@H](NC(=O)[C@H](CCC(=O)O)NC(=O)[C@@H]1CCCN1C(=O)[C@@H]1CCCN1C(=O)[C@@H](NC(=O)[C@H](CC(N)=O)NC(=O)[C@H](CO)NC(=O)[C@@H]1CCCN1C(=O)CNC(=O)[C@H](CO)NC(=O)[C@@H](N)CSCCO[C@@H]1O[C@H](CO)[C@H](O[C@H]2O[C@H](CO)[C@H](O)[C@H](O)[C@H]2O)[C@H](O)[C@H]1O)[C@@H](C)O)C(=O)O [Gal2 -CSG11]
reactivity with MC2101 in ELISA, comparison [1]: reacted stronger than the GAL2 -CAS10 peptide
Absorbance at 405 nm ([1]; antibody MC2101 (specificity Galabios Gal--Gal), peptides coated at 50 μg/ml, pH 9.6): 1.86
Absorbance at 405 nm [2]: 0.04
expression of the Gal2 epitope on the surface of cells that have bound glycopeptides (FACS) (RMA-S cells [3]): high Gal2 expression

CCN(CC)CCCC(C)Nc1ccnc2cc(Cl)ccc12 (centres unmarked) [chloroquine]
effect on return of susceptibility to CTL killing (EL4 and RMA-S cells; pronase treated peptide-coated cells incubated at 37° C., data not shown): blocked
effect on return of the Gal2 epitope to the cell surface (RMA-S cells [4]): inhibited
effect on peptide mediated MHC-1 (H-2D^b) upregulation (H-2D^b): inhibits this upregulation

ASNENMETM [pep 9(PR8), NP366-374 of influenza A virus strain A/PR/8/34]
CTL response against pep 9(PR8)-coated RMA and EL4 cells (EL4 target cells; [6]): strong CTL response
killing of virus-infected target cells (EL4 target cells; [6]): not killed
lysis of pep 9(PR8)-coated EL4 cells by CTL depleted for CD8^+ T cells (EL4 target cells; FIG. 7a): failed to lyse
effect of depletion of CD4^+ T cells on cytolytic activity (EL4 target cells; FIG. 7a, pep 9(PR8)-coated target cells): did not affect the cytolytic activity
CTL response (EL4 target cells; immunization with 10 μg and 1 μg): less or even no CTL response
MHC restriction of peptide-induced cytotoxicity (EL4 target cells; mouse, in vivo): H-2D^b restricted
specificity of induced CTL (EL4 target cells; mouse, in vivo): preferentially killed their corresponding peptide-coated and virus-infected cells
EL4 target lysis (%) PR8-infected (EL4 target cells; [7]): 10.50%
EL4 target lysis (%) Untreated (EL4 target cells; [7]): 3.32%
EL4 target lysis (%) pep9(PR8)-coated (EL4 target cells; [7]): 15.54%
EL4 target lysis (%) PR8-infected (EL4 target cells; [8]): 12.43%
EL4 target lysis (%) Untreated (EL4 target cells; [8]): 4.08%
EL4 target lysis (%) pep9(PR8)-coated (EL4 target cells; [8]): 16.44%
EL4 target lysis (%) PR8-infected (EL4 target cells; [9]): 5.54%
EL4 target lysis (%) Untreated (EL4 target cells; [9]): 2.66%
EL4 target lysis (%) pep9(PR8)-coated (EL4 target cells; [9]): 9.28%
EL4 target lysis (%) PR8-infected (EL4 target cells; [10]): 6.88%
EL4 target lysis (%) Untreated (EL4 target cells; [10]): 3.34%
EL4 target lysis (%) pep9(PR8)-coated (EL4 target cells; [10]): 11.85%
EL4 target lysis (%) PR8-infected (EL4 target cells; [11]): 23.75%
EL4 target lysis (%) Untreated (EL4 target cells; [11]): 4.14%
EL4 target lysis (%) pep9(PR8)-coated (EL4 target cells; [11]): 34.60%
EL4 target lysis (%) PR8-infected (EL4 target cells; [12]): 31.19%
EL4 target lysis (%) Untreated (EL4 target cells; [12]): 5.74%
EL4 target lysis (%) pep9(PR8)-coated (EL4 target cells; [12]): 45.52%
EL4 target lysis (%) PR8-infected (EL4 target cells; [13]): 13.98%
EL4 target lysis (%) Untreated (EL4 target cells; [13]): 4.19%
EL4 target lysis (%) pep9(PR8)-coated (EL4 target cells; [13]): 22.09%
EL4 target lysis (%) PR8-infected (EL4 target cells; [14]): 15.04%
EL4 target lysis (%) Untreated (EL4 target cells; [14]): 5.63%
EL4 target lysis (%) pep9(PR8)-coated (EL4 target cells; [14]): 23.54%
EL4 target lysis (%) PR8-infected (EL4 target cells; [15]): 30.07%
EL4 target lysis (%) Untreated (EL4 target cells; [15]): 0.51%
EL4 target lysis (%) pep9(PR8)-coated (EL4 target cells; [15]): 50.73%
EL4 target lysis (%) PR8-infected (EL4 target cells; [16]): 30.76%
EL4 target lysis (%) Untreated (EL4 target cells; [16]): 0.12%
EL4 target lysis (%) pep9(PR8)-coated (EL4 target cells; [16]): 59.42%
EL4 target lysis (%) PR8-infected (EL4 target cells; [17]): 8.50%
EL4 target lysis (%) Untreated (EL4 target cells; [17]): 4.21%
EL4 target lysis (%) pep9(PR8)-coated (EL4 target cells; [17]): 34.73%
EL4 target lysis (%) PR8-infected (EL4 target cells; [18]): 7.00%
EL4 target lysis (%) Untreated (EL4 target cells; [18]): 4.61%
EL4 target lysis (%) pep9(PR8)-coated (EL4 target cells; [18]): 43.68%
killing of peptide treated RMA-S and EL-4 target cells by influenza A (PR8) specific CTL (EL4 and RMA-S cells; FIG. 11): strongly killed
CTL activity at day 30 after priming [5]: lower level of CTL activity could still be detected
time of peak CTL activity after the immunization ([5]; restimulated with 5 μM, effector:target 60:1): 7 days
